According to patent US10712349B2, “Circulating KIM-1 levels for detection of pathologies associated with injury to, or cancer of, the kidney” (THE BRIGHAM AND WOMEN'S HOSPITAL, INC., priority 2014, dated 2020):
“Also recorded” adds a separate entry of the source.

Legend:
Male Sprague-Dawley rats = assay: Gentamicin-induced nephrotoxicity in rats; type: in vivo, rat; settings: for kidney histopathologic analysis: kidney tissue collected day 11
Experimental: Rats were provided with free access to food and water and subjected to a 12-hour light and dark cycle. Rats were euthanized on day 11, and urine, plasma, and tissue samples were collected and analyzed. Tissue samples were fixed in 10% neutral buffered formalin or snap frozen. For histologic assessment, […] paraffin sections were prepared and stained with hematoxylin and eosin. The rat studies were undertaken in accordance with criteria outlined in a license granted under the Animals (Scientific Procedures) Act 1986 and approved by the University of Liverpool Animal Ethics Committee.
(§1) Microbead-based assays for rodent and human plasma and serum KIM-1 were developed, and extensive validation of the assays were performed using previously described approaches.^24 Urinary KIM-1 in rodents and humans was measured using microbead based assays as described previously.5,7,25,26 Capture antibodies (MAB 1817 for mouse, AF1750 for human [R&D Systems]), MARKE^25 antibody for rat (developed at Brigham and Women's Hospital) were conjugated with COOH polystyrene beads (Bio-Rad) with an amine coupling kit (Bio-Rad) using N-hydroxysuccinamide-1-ethyl-3-(3-dimethylaminopropyl) carbodiimide chemistry according to the manufacturer's protocol. Approximately 6000 beads in […] of sample diluent buffer (0.1M HEPES, 0.1M NaCl, 0.1% Tween-20, and 1% BSA; pH, 7.4; filter sterilized) were incubated with […] of sample or recombinant KIM-1 protein (1817-TM-050-CF for mice, 1750-TM for humans [R&D systems]), and KIM-FC for rats [developed at Brigham and Women's Hospital]) for 45 minutes. After incubation, beads were washed three times with PBS with Tween and incubated with biotinylated anti-KIM-1 detection antibody (BAF 1817 for mice, BAF 1750 for humans [R&D Systems]) and MARKE-2 for rats [developed at Brigham and Women's Hospital]) for 30 minutes. Beads were washed again with PBS with Tween and incubated for 15 minutes with the streptavidin-phycoerythrin solution (Invitrogen). The signal from the fluorochrome, which is directly proportional to the amount of antigen bound at the microbead surface, is captured using the Bio-Plex system (Bio-Rad). Data were interpreted using a five parametric logistic regression analysis.
The inventors also investigated whether plasma KIM-1 levels can serve as a biomarker in gentamicin-induced kidney injury in a different rodent species, rats. […] Plasma, urine, and kidney tissue were collected on day 11. The extent of kidney damage was assessed by histo-pathologic analysis and changes in plasma creatinine. […] The lumens of the tubules were filled with casts and dead cells. […] Thus, plasma KIM-1 is a sensitive marker of ischemia and toxin-induced injury to the proximal tubule in mice and rats.

male BALB/c mice = assay: Liver injury in mice (CCl4), specificity of plasma KIM-1 to renal injury; type: in vivo, mouse; settings: 48 hours
Experimental: As controls, male BALB/c mice were injected intraperitoneally once with 0.5 ml/kg of 10% CC14 in vegetable oil (n=5) or vegetable oil alone (vehicle, n=5), as previously de-scribed.^21 Forty-eight hours after CCl4 administration, mice were euthanized and urine, plasma, and tissue samples were collected and analyzed.
as §1
To evaluate the specificity of plasma KIM-1 to renal injury, mice were treated with carbon tetrachloride (CCl4), a known hepatotoxicant. […] Thus, plasma KIM-1 was not affected by liver injury.

[1] = single dose of 10% CCl4, 0.5 ml/kg

gentamicin
kidney histopathologic analysis (Male Sprague-Dawley rats; 50 mg/kg gentamicin per day intraperitoneally for 10 days): brush border loss, focal tubular necrosis, and interstitial inflammation
urinary KIM-1 levels (normalized to urine creatinine) (Male Sprague-Dawley rats; 10 daily doses of 50 or 200 mg/kg, day 11): significantly increased
kidney sections, hematoxylin and eosin staining (Male Sprague-Dawley rats; 50 or 200 mg/kg daily for 10 days, euthanized day 11 (FIG. 1H)): loss of brush border, necrosis, and sloughing of cells into the tubular lumen
kidney histopathologic analysis (Male Sprague-Dawley rats; daily doses of 200 mg/kg gentamicin for 10 days): extensive diffuse cell necrosis

ClC(Cl)(Cl)Cl [CCl4, carbon tetrachloride]
liver histopathology (male BALB/c mice; single dose of 10% CCl4, 0.5 ml/kg intraperitoneally): liver necrosis
kidney morphology (histopathology) (male BALB/c mice; [1]): No histopathologic changes
plasma KIM-1 (male BALB/c mice; [1]): no significant alterations; also recorded: not changed
plasma creatinine (male BALB/c mice; [1]): no significant alterations
urinary KIM-1 (male BALB/c mice; [1]): no significant alterations
